According to BindingDB's records for doi:10.1016/j.bmcl.2010.08.042 (Vanderbilt University Medical Center, 2010):

Molecular target: T1, Muscarinic acetylcholine receptor M1 (Homo sapiens, UniProt P11229)
T1 sequence (P11229 whole entry): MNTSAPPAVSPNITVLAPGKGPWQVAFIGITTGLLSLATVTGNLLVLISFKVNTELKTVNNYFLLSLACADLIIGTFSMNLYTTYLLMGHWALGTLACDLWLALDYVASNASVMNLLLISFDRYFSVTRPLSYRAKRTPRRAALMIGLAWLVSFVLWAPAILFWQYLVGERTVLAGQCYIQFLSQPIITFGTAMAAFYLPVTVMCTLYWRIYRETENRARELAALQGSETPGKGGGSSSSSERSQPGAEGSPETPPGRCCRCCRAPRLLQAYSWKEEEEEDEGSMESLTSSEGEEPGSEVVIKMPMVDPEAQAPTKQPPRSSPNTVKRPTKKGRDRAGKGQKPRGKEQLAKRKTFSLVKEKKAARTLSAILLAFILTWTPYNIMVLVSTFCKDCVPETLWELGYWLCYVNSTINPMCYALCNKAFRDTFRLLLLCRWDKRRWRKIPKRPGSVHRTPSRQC
Experiment: Positive allosteric modulation of muscarinic M1 receptor expressed in CHO cells assessed as effect on acetylcholine-induced intracellular calcium mobilization after 1 hr by FLIPR assay

- EC50: 6.1 µM
Structure (SMILES): O=C1C(=O)N(Cc2ccc(Br)cc2)c2ccccc21
